The target of data set [1] is bovine pancreatic DNase I (Bos taurus, UniProt P00639). Briefly: in vitro DNase I inhibition assay (spectrophotometric, absorbance of oligonucleotides at 260 nm). The data set is classed as biochemical. The protocol: Compounds 3a–c were included in an in vitro DNase I inhibition assay.
Evaluation of DNase I inhibition. In vitro determination of the inhibitory activity of compounds 3a–c against bovine pancreatic DNase I was performed using the spectrophotometric method described by Kolarević et al., which is based on measuring the absorbance of the formed oligonucleotides at 260 nm.

bovine pancreatic DNase I, sequence (P00639 23-282): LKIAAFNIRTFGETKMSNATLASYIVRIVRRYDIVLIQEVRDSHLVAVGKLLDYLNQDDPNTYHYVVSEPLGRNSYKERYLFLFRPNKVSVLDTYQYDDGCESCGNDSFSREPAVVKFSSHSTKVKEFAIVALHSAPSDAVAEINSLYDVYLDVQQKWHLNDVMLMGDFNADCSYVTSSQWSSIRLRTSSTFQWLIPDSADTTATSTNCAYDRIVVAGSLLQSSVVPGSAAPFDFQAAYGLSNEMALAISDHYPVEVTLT

Usually melting point stands for the temperature, or range, at which the solid turns liquid. Usually IC50 stands for the concentration that gives 50% inhibition. A low value points to greater potency. Compound `CCOc1c(NCCc2cccnc2)c(=O)c1=O` [Compound 3a] showed a melting point of 139.8 to 141.2 °C. Also, in data set [1], the concentration for half-maximal inhibition (IC50) stood at 54.5 ± 8.07 µM. In data set [1], `CCOc1c(NCCc2ccncc2)c(=O)c1=O` [Compound 3b] came in with a 50% inhibitory concentration (IC50) of 57.8 ± 9.67 µM. Same read-out and setting: the result for `CCOc1c(NC(C)Cc2cccnc2)c(=O)c1=O` (centres unmarked) [Compound 3c, 3-Ethoxy-4-((1-(pyridin-3-yl)propan-2-yl)amino)cyclobut-3-ene-1,2-dione] reads 48 ± 7.98 µM. Regarding `CN(C)c1ccc(C(=C2C=CC(=[N+](C)C)C=C2)c2ccc(N(C)C)cc2)cc1` [crystal violet, reference compound], in data set [1], the IC50 turned out to be 358 ± 40.7 µM.
